Data set [1] in a line: Solubility test: dissolution of crystalline form sample in water. Type of data set: physicochemical. Particulars: 25±5° C.; for dissolubility of samples (300 mg/mL): about 600 mg sample in water (2 mL), ultrasonic vibration, visual check for solute particles; for solubility in water (conclusion from Table 1): 300 mg/mL. The method, then: About 600 mg of a crystalline form sample was added to water (2 mL). The dissolution of the sample was obtained with ultrasonic vibration at 25±5° C. No visible solute particles mean that the sample has a complete dissolution in water; whereas visible solute particles mean that the sample precipitates in water.

Data set [2] is described as follows: Stability test: impurity content by HPLC under storage conditions. It counts as physicochemical. Particulars: for stability under the experimental conditions (conclusion from Tables 2 and 3): high temperature, accelerated, mediated, high humidity and illumination conditions, up to 30 days. The method, then: A crystalline form sample was put in a watch glass in the form of a thin layer of ≦5 mm. The stability test was conducted under different conditions: high temperature (60±2° C.) for 30 days, accelerated condition (40±2° C., 75%±5% humidity) for 30 days, mediated condition (30±2° C., 65%±5% humidity) for 30 days, high humidity (25±2° C., 90%±5%) for 10 days and illumination condition (visible light 4500 lx±500 lx with ultraviolet light not lower than 0.7 W·h/m^2, 25±2° C., 60%±5% relative humidity) for 10 days respectively. The impurity contents of crystalline forms B and C were determined at various time points (0, 10, 20, and 30 days) by high performance liquid chromatography (HPLC) with peak area normalization.

Setting [3] is: accelerated condition (40±2° C., 75%±5% humidity), 0 day.
Where [4] appears, read: accelerated condition (40±2° C., 75%±5% humidity), 10 days.
[5] abbreviates: accelerated condition (40±2° C., 75%±5% humidity), 20 days.
Where [6] appears, read: accelerated condition (40±2° C., 75%±5% humidity), 30 days.
[7] abbreviates: high humidity (25±2° C., 90%±5%), 0 day.
The mark [8] stands for this setting: high humidity (25±2° C., 90%±5%), 10 days.
Where [9] appears, read: high temperature (60±2° C.), 0 day.
Setting [10] is: high temperature (60±2° C.), 10 days.
Setting [11] is: high temperature (60±2° C.), 20 days.
The mark [12] stands for this setting: high temperature (60±2° C.), 30 days.
The mark [13] stands for this setting: illumination condition (visible light 4500 lx±500 lx with UV, 25±2° C., 60%±5% relative humidity), 0 day.
[14] abbreviates: illumination condition (visible light 4500 lx±500 lx with UV, 25±2° C., 60%±5% relative humidity), 10 days.
The mark [15] stands for this setting: mediated condition (30±2° C., 65%±5% humidity), 0 day.
Where [16] appears, read: mediated condition (30±2° C., 65%±5% humidity), 10 days.
[17] abbreviates: mediated condition (30±2° C., 65%±5% humidity), 20 days.
[18] abbreviates: mediated condition (30±2° C., 65%±5% humidity), 30 days.

Where a name gives a salt, the structure may show the parent alone.

Consider `CCOC(=O)C1=C(CN2CCOCC2)NC(c2nccs2)=NC1c1ccc(F)cc1Br` (single isomer, unassigned) [form B, 6[R,S]-ethyl 6-(2-bromo-4-fluorophenyl)-4-(morpholinomethyl)-2-(thiazol-2-yl)-1,6-dihydro pyrimidine-5-carboxylate mesylate], for which the “dissolubility of samples (300 mg/mL)” value in data set [1] is on record as “completely dissolved, some sample precipitated”. Moreover, in data set [1], the “solubility in water (conclusion from Table 1)” value is recorded as “good solubility in water”. The “impurity content by HPLC” value in data set [2] (setting [3]) is reported as 0.06%; in data set [2] (setting [4]) it was 0.09%; in data set [2] (setting [5]), 0.08%; in data set [2] (setting [6]), 0.10%; in data set [2] (setting [7]), 0.06%; in data set [2] (setting [8]) it was 0.06%. Further, the “impurity content by HPLC” value worked out at 0.06% in data set [2] (setting [9]); 0.13% in data set [2] (setting [10]); 0.20% in data set [2] (setting [11]); 0.24% in data set [2] (setting [12]); 0.06% in data set [2] (setting [13]); 0.12% in data set [2] (setting [14]). The “impurity content by HPLC” value in data set [2] (setting [15]) came out at 0.06%; in data set [2] (setting [16]) it was 0.10%; in data set [2] (setting [17]) it was 0.13%; in data set [2] (setting [18]) it was 0.12%. The “stability under the experimental conditions (conclusion from Tables 2 and 3)” value in data set [2] is “did not degrade or change”.
For `CCOC(=O)C1=C(CN2CCOCC2)NC(c2nccs2)=NC1c1ccc(F)cc1Br` (single isomer, unassigned) [form C, 6[R,S]-ethyl 6-(2-bromo-4-fluorophenyl)-4-(morpholinomethyl)-2-(thiazol-2-yl)-1,6-dihydro pyrimidine-5-carboxylate mesylate], the “dissolubility of samples (300 mg/mL)” value in data set [1] was “completely dissolved, no sample precipitated”. Besides, in data set [1], the “solubility in water (conclusion from Table 1)” value is listed as “good solubility in water”. For the same compound, the “impurity content by HPLC” value is 0.03% in data set [2] (setting [3]); 0.04% in data set [2] (setting [4]); 0.04% in data set [2] (setting [5]); 0.04% in data set [2] (setting [6]); 0.03% in data set [2] (setting [7]); 0.04% in data set [2] (setting [8]). In addition, the “impurity content by HPLC” value in data set [2] (setting [9]) is 0.03%; in data set [2] (setting [10]), 0.06%; in data set [2] (setting [11]), 0.03%; in data set [2] (setting [12]), 0.03%; in data set [2] (setting [13]), 0.03%; in data set [2] (setting [14]) it was 0.03%. Also, the “impurity content by HPLC” value in data set [2] (setting [15]), in data set [2] (setting [16]), in data set [2] (setting [17]) and in data set [2] (setting [18]) was 0.03% in each case. For the same compound, in data set [2], the “stability under the experimental conditions (conclusion from Tables 2 and 3)” value is reported as “did not degrade or change”.
